Several values for one entry are separate records, joined by “and”; a condition that tells them apart may be missing. Equal entries are not always repeated. Structures can show the parent of a compound that is named as a salt.
System: patients with seasonal allergic rhinitis (SAR)
Test: MP 428 study: adverse events, Safety Population
Format: in vivo, human
Procedure: A two-week, randomized, double-blind study, which evaluated the effects of the co-administration of ASTELIN® (azelastine hydrochloride (HCl)) and FLONASE® (fluticasone propionate) compared to either product alone in patients with seasonal allergic rhinitis (SAR) was conducted during the 2006 Texas mountain cedar season. After a 5-day placebo lead-in period, 151 patients with moderate-to-severe allergic rhinitis symptoms were randomized to either: (1) (49 total patients) ASTELIN® (azelastine hydrochloride (HCl)) plus placebo saline nasal spray 2 sprays per nostril, 15 minutes apart, twice daily (AM & PM); (2) (50 total patients) FLONASE® (fluticasone propionate) plus placebo saline nasal spray, 2 sprays per nostril, 15 minutes apart, once daily (AM) and two sessions of placebo saline nasal spray, 2 sprays per nostril, 15 minutes apart (PM); or (3) (52 total patients) the co-administration of ASTELIN® (azelastine hydrochloride (HCl)) 2 sprays per nostril plus FLONASE® (fluticasone propionate) 2 sprays per nostril (AM), 15 minutes apart, and ASTELIN® (azelastine hydrochloride (HCl)) 2 sprays per nostril plus placebo saline nasal spray, 15 minutes apart, (PM) for a 2-week double-blind treatment period.
The most common adverse events (AEs) were bitter taste (8.2% in ASTELIN® (azelastine hydrochloride (HCl)) group, 2.0% in FLONASE® (fluticasone propionate) group, 13.5% in co-administration group) and headache (4.1% in ASTELIN® (azelastine hydrochloride (HCl)) group, 4.0% in FLONASE® (fluticasone propionate) group, 5.8% in co-administration group). No other AE was reported by more than one patient in any treatment group. There were no discontinuations due to AEs.

[1] = Total (possibly or probably related), Safety Population

## CN1CCCC(n2nc(Cc3ccc(Cl)cc3)c3ccccc3c2=O)CC1 (racemic) [Azelastine, (±)-1-(2H)-phthalazinone, 4-[(4-chlorophenyl)methyl]-2-(hexahydro-1-methyl-1H-azepin-4-yl)-, mono-hydrochloride]
[1]
  Treatment-Related Adverse Events: NERVOUS SYSTEM DISORDERS, Any Preferred Term: 0 (0.0) No. of Patients (%)
  Treatment-Related Adverse Events: RESPIRATORY, THORACIC AND MEDIASTINAL DISORDERS, Any Preferred Term: 0 (0.0) No. of Patients (%)
  Treatment-Related Adverse Events: STOMACH DISCOMFORT: 0 (0.0) No. of Patients (%)
Max severity Mild
  Treatment-Emergent AE: DRY MOUTH: 0 (0.0) No. of Patients (%)
  Treatment-Emergent AE: DYSGEUSIA: 1 (2.0) No. of Patients (%)
  Treatment-Emergent AE: EAR AND LABYRINTH DISORDERS, Any Preferred Term: 0 (0.0) No. of Patients (%)
  Treatment-Emergent AE: EAR PAIN: 0 (0.0) No. of Patients (%)
  Treatment-Emergent AE: EPISTAXIS: 0 (0.0) No. of Patients (%)
  Treatment-Emergent AE: GASTROINTESTINAL DISORDERS, Any Preferred Term: 1 (2.0) No. of Patients (%)
  Treatment-Emergent AE: HEADACHE: 1 (2.0) No. of Patients (%)
  Treatment-Emergent AE: MUSCULOSKELETAL AND CONNECTIVE TISSUE DISORDERS, Any Preferred Term: 1 (2.0) No. of Patients (%)
  Treatment-Emergent AE: MYALGIA: 0 (0.0) No. of Patients (%)
  Treatment-Emergent AE: NASAL DISCOMFORT: 0 (0.0) No. of Patients (%)
  Treatment-Emergent AE: NECK PAIN: 1 (2.0) No. of Patients (%)
  Treatment-Emergent AE: NERVOUS SYSTEM DISORDERS, Any Preferred Term: 1 (2.0) No. of Patients (%)
  Treatment-Emergent AE: PHARYNGOLARYNGEAL PAIN: 0 (0.0) No. of Patients (%)
  Treatment-Emergent AE: RESPIRATORY, THORACIC AND MEDIASTINAL DISORDERS, Any Preferred Term: 0 (0.0) No. of Patients (%)
  Treatment-Emergent AE: STOMACH DISCOMFORT: 0 (0.0) No. of Patients (%)
Max severity Mild, mono-hydrochloride
  Treatment-Emergent AE: Any Adverse Event: 3 (6.1) No. of Patients (%) and 3 (0.1) No. of Patients (%)
Max severity Moderate
  Treatment-Emergent AE: Any Adverse Event: 2 (4.1) No. of Patients (%)
  Treatment-Emergent AE: DRY MOUTH: 0 (0.0) No. of Patients (%)
  Treatment-Emergent AE: DYSGEUSIA: 0 (0.0) No. of Patients (%)
  Treatment-Emergent AE: EAR AND LABYRINTH DISORDERS, Any Preferred Term: 1 (2.0) No. of Patients (%)
  Treatment-Emergent AE: EAR PAIN: 1 (2.0) No. of Patients (%)
  Treatment-Emergent AE: EPISTAXIS: 0 (0.0) No. of Patients (%)
  Treatment-Emergent AE: GASTROINTESTINAL DISORDERS, Any Preferred Term: 0 (0.0) No. of Patients (%)
  Treatment-Emergent AE: HEADACHE: 1 (2.0) No. of Patients (%)
  Treatment-Emergent AE: MUSCULOSKELETAL AND CONNECTIVE TISSUE DISORDERS, Any Preferred Term: 0 (0.0) No. of Patients (%)
  Treatment-Emergent AE: MYALGIA: 0 (0.0) No. of Patients (%)
  Treatment-Emergent AE: NASAL DISCOMFORT: 0 (0.0) No. of Patients (%)
  Treatment-Emergent AE: NECK PAIN: 0 (0.0) No. of Patients (%)
  Treatment-Emergent AE: NERVOUS SYSTEM DISORDERS, Any Preferred Term: 1 (2.0) No. of Patients (%)
  Treatment-Emergent AE: PHARYNGOLARYNGEAL PAIN: 1 (2.0) No. of Patients (%)
  Treatment-Emergent AE: RESPIRATORY, THORACIC AND MEDIASTINAL DISORDERS, Any Preferred Term: 1 (2.0) No. of Patients (%)
  Treatment-Emergent AE: STOMACH DISCOMFORT: 0 (0.0) No. of Patients (%)
Max severity Severe
  Treatment-Emergent AE: Any Adverse Event: 3 (6.1) No. of Patients (%)
  Treatment-Emergent AE: DRY MOUTH: 0 (0.0) No. of Patients (%)
  Treatment-Emergent AE: DYSGEUSIA: 3 (6.1) No. of Patients (%)
  Treatment-Emergent AE: EAR AND LABYRINTH DISORDERS, Any Preferred Term: 0 (0.0) No. of Patients (%)
  Treatment-Emergent AE: EAR PAIN: 0 (0.0) No. of Patients (%)
  Treatment-Emergent AE: EPISTAXIS: 0 (0.0) No. of Patients (%)
  Treatment-Emergent AE: GASTROINTESTINAL DISORDERS, Any Preferred Term: 3 (6.1) No. of Patients (%)
  Treatment-Emergent AE: HEADACHE: 0 (0.0) No. of Patients (%)
  Treatment-Emergent AE: MUSCULOSKELETAL AND CONNECTIVE TISSUE DISORDERS, Any Preferred Term: 0 (0.0) No. of Patients (%)
  Treatment-Emergent AE: MYALGIA: 0 (0.0) No. of Patients (%)
  Treatment-Emergent AE: NASAL DISCOMFORT: 0 (0.0) No. of Patients (%)
  Treatment-Emergent AE: NECK PAIN: 0 (0.0) No. of Patients (%)
  Treatment-Emergent AE: NERVOUS SYSTEM DISORDERS, Any Preferred Term: 0 (0.0) No. of Patients (%)
  Treatment-Emergent AE: PHARYNGOLARYNGEAL PAIN: 0 (0.0) No. of Patients (%)
  Treatment-Emergent AE: RESPIRATORY, THORACIC AND MEDIASTINAL DISORDERS, Any Preferred Term: 0 (0.0) No. of Patients (%)
  Treatment-Emergent AE: STOMACH DISCOMFORT: 0 (0.0) No. of Patients (%)
Share of treatment group
  adverse event: bitter taste: 8.2%
  adverse event: headache: 4.1%
